For assay [1], the system named is E. faecium. Kind of assay: Coloration or fluorescence in phosphate buffer, microtitration plates (Example 2). The class given is cell-based, Enterococcus faecium. To be noted: 0.1 M phosphate buffer pH 7.3, 24 to 48 hours.
Assay [2] has as its system genera Escherichia, Klebsiella, Citrobacter, Pseudomonas, Enterococcus, Staphylococcus and Streptococcus. Description: Preliminary tests in the medium described in Example 1. The conditions noted are these: for leucine-aminopeptidase or proline-aminopeptidase activity demonstrated: substrate added to the medium of Example 1; for revelation of a peptidase activity: medium of Example 1 with addition of the reagents proposed by Lojda and Havrankova (tetrazolium salt and phenazine methosulphate). The class given is cell-based. Here is the method:
In the course of the studies which lead to the present invention, an investigation was, carried out as to whether it was possible to use this enzymatic substrate for detecting microorganisms cultured, in particular, on gelled media. During preliminary tests, L-Leu-BIA or L-Pro-BIA was added to a medium currently used to search for osidases, which is described in Example 1 below.
Similarly, in this medium, with osidase substrates (5-bromo-4-chloro-3-indolyl-β-D-galactoside and 6-chloro-3-indolyl-β-D-glucuronide), the β-galactos-idase and β-glucuronidase activities of the microorganisms can be detected.

In assay [3] the test system is E. coli. Kind of assay: Coloration or fluorescence in phosphate buffer, microtitration plates (Example 2). To be noted: 0.1 M phosphate buffer pH 7.3, 24 to 48 hours. The class given is cell-based, Escherichia coli.
For assay [4], the system named is S. agalactiae. The assay is described as above. The class given is cell-based, Streptococcus agalactiae. To be noted: 0.1 M phosphate buffer pH 7.3, 24 to 48 hours.
Assay [5] has as its system C. freundii. The assay is described as above. To be noted: 0.1 M phosphate buffer pH 7.3, 24 to 48 hours. The class given is cell-based, Citrobacter freundii.
For assay [6], the system named is P. aeruginosa. The assay is described as above. The class given is cell-based, Pseudomonas aeruginosa. To be noted: 0.1 M phosphate buffer pH 7.3, substrate 400 mg/L, 37° C., 24 to 48 hours. Here is the method: (§1) L-Pro-BIA or L-Pro-AMC is added, at the concentration of 400 mg/L, to a 0.1 M phosphate buffer, pH 7.3, at 25° C. The medium obtained is distributed into the wells of microtitration plates which are inoculated with suspensions of P. aeruginosa or of C. albicans. The plates are incubated for 24 hours at 37° C. The wells are examined visually in ambient light and under a UV lamp, after incubation for 24 to 48 hours.

The subject of assay [7] is S. pyogenes. The assay is described as above. The conditions noted are these: 0.1 M phosphate buffer pH 7.3, 24 to 48 hours. The class given is cell-based, Streptococcus pyogenes.
Assay [8] relates to K. pneumoniae. Described as above. The class given is cell-based, Klebsiella Pneumoniae. The conditions noted are these: 0.1 M phosphate buffer pH 7.3, 24 to 48 hours.
The test system of assay [9] is Enterococcus faecium. Kind of assay: Colony colour or fluorescence on gelled medium of Example 1. To be noted: medium of Example 1, substrate 200 mg/L, 24 or 48 hours. The class given is cell-based.
Assay [10] deals with Citrobacter freundii. The assay is described as above. The class given is cell-based. To be noted: medium of Example 1, substrate 200 mg/L, 24 or 48 hours.
Assay [11] concerns Streptococcus pyogenes. Described as above. The class given is cell-based. The conditions noted are these: medium of Example 1, substrate 200 mg/L, 24 or 48 hours.
For assay [12], the system named is Streptococcus agalactiae. The assay is described as above. The class given is cell-based. The conditions noted are these: medium of Example 1, substrate 200 mg/L, 24 or 48 hours.
The test system of assay [13] is Klebsiella Pneumoniae. The description is as above. The class given is cell-based. The conditions noted are these: medium of Example 1, substrate 200 mg/L, 24 or 48 hours.
The subject of assay [14] is Pseudomonas aeruginosa. The description is as above. The class given is cell-based. To be noted: medium of Example 1, substrate 200 mg/l, 37° C., 24 or 48 hours, ambient light and UV 365 nm. Here is the method:
(§2) L-Pro-BIA, or 7-L-prolylamino-4-methylcoumarin (L-Pro-AMC) is added to this medium at a concentration of 200 mg/l. The various media obtained, which are distributed in Petri dishes, are inoculated with microorganisms. The dishes were incubated at 37° C. for 48 hours. The colonies formed were examined visually in ambient light and under a UV lamp (wavelength=365 nm) after incubation for 24 and 48 hours. The colour or the presence of fluorescence was noted. The microorganisms studied were: Pseudomonas aeruginosa and Candida albicans.

In assay [15] the test system is Escherichia coli. The assay is described as above. The class given is cell-based. To be noted: medium of Example 1, substrate 200 mg/L, 24 or 48 hours.
Assay [16] concerns Staphylococcus epidermidis. The description is as above. To be noted: medium of Example 1, substrate 200 mg/L, 24 or 48 hours. The class given is cell-based.
The subject of assay [17] is K. pneumoniae. Description: Colony colour on gelled medium of Example 3. Details: key: —: Absence of coloration; Brown = Colony colour. The conditions noted are these: 37° C. The class given is cell-based, Klebsiella Pneumoniae. Here is the method: (§3) L-Pro-BIA, pyroglutamyl-BIA (Pyr-BIA) or Ala-Phe-Pro-BIA is added to this medium. These various media, which are distributed into Petri dishes, are inoculated with various microorganisms: E. coli, K. pneumoniae, C. freundii, p. aeruginosa, S. agalactiae, E. faecium, S. pyogenes, S. epidermidis, C. albicans and C. tropicalis. The dishes are incubated at 37° C. for 48 hours, and the colonies formed are examined visually after incubation for 24 and 48 hours. The colour was noted.

The subject of assay [18] is S. pyogenes. Description: Colony colour on gelled medium of Example 3. The conditions noted are these: 37° C. The arrangement: key: —: Absence of coloration; Brown = Colony colour. The class given is cell-based, Streptococcus pyogenes. Here is the method: as §3
In assay [19] the test system is S. epidermidis. Kind of assay: Colony colour on gelled medium of Example 3. The class given is cell-based, Staphylococcus epidermidis. Details: key: —: Absence of coloration; Brown = Colony colour. The conditions noted are these: 37° C. Here is the method:
as §3

The subject of assay [20] is P. aeruginosa. Description: Colony colour on gelled medium of Example 3. The class given is cell-based, Pseudomonas aeruginosa. The arrangement: key: —: Absence of coloration; Brown = Colony colour. The conditions noted are these: 37° C. Here is the method: as §3
Assay [21] concerns E. coli. Kind of assay: Colony colour on gelled medium of Example 3. Details: key: —: Absence of coloration; Brown = Colony colour. To be noted: 37° C. The class given is cell-based, Escherichia coli. Here is the method:
as §3

For assay [22], the system named is E. faecium. Description: Colony colour on gelled medium of Example 3. The class given is cell-based, Enterococcus faecium. Details: key: —: Absence of coloration; Brown = Colony colour. The conditions noted are these: 37° C. Here is the method:
as §3

The subject of assay [23] is C. freundii. Kind of assay: Colony colour on gelled medium of Example 3. The class given is cell-based, Citrobacter freundii. Details: key: —: Absence of coloration; Brown = Colony colour. To be noted: 37° C. Here is the method: as §3
Assay [24] concerns S. agalactiae. Description: Colony colour on gelled medium of Example 3. Details: key: —: Absence of coloration; Brown = Colony colour. To be noted: 37° C. The class given is cell-based, Streptococcus agalactiae. Here is the method: as §3
Assay [25] deals with Candida albicans. Kind of assay: Colony colour or fluorescence on gelled medium of Example 1. The class given is cell-based. To be noted: medium of Example 1, substrate 200 mg/l, 37° C., 24 or 48 hours, ambient light and UV 365 nm. Here is the method:
as §2

For assay [26], the system named is C. albicans. Kind of assay: Coloration or fluorescence in phosphate buffer, microtitration plates (Example 2). The class given is cell-based, Candida albicans. To be noted: 0.1 M phosphate buffer pH 7.3, substrate 400 mg/L, 37° C., 24 to 48 hours. Here is the method: as §1
Assay [27] deals with C. albicans. Kind of assay: Colony colour on gelled medium of Example 3. The arrangement: key: —: Absence of coloration; Brown = Colony colour. The class given is cell-based, Candida albicans. The conditions noted are these: 37° C. Here is the method:
as §3

Assay [28] concerns C. tropicalis. Description: Colony colour on gelled medium of Example 3. The class given is cell-based. The arrangement: key: —: Absence of coloration; Brown = Colony colour. The conditions noted are these: 37° C. Here is the method:
as §3

Experimental findings from patent publication US6649365B1, “Indolamine derivatives for detecting peptidase activity in culture media” (Bio Merieux, priority 1998, dated 2003) are described below.

As for `Cc1cc(=O)oc2cc(NC(=O)[C@@H](N)CC(C)C)ccc12` [L-Leu-AMC, 7-L-leucylamino-4-methylcoumarin], the “peptidase activity revealed by coloration or fluorescence of the wells” value (“peptidase activity revealed … of the wells” below) in [1] was “detected, by emission of fluorescence”; in assay [3], “detected, by emission of fluorescence”; in assay [4], “detected, by emission of fluorescence”; in [5] it was “detected, by emission of fluorescence”; in assay [6] it was “detected, by emission of fluorescence”; in [7], “detected, by emission of fluorescence”. Further, the “peptidase activity revealed … of the wells” value in [8] is reported as “detected, by emission of fluorescence”. Moreover, the “leucine-aminopeptidase or proline-aminopeptidase activity demonstrated” value in assay [2] is recorded as “a fluorescence”.
In the case of `CC(C)C[C@H](N)C(=O)Nc1c[nH]c2ccc(Br)cc12` [L-Leu-BIA, 3-L-leucylamino-5-bromoindole], the “peptidase activity revealed by colour or fluorescence of the colonies” value (shortened to “peptidase activity revealed … of the colonies”) in assay [9], in assay [10], in [11], in assay [12], in assay [13] and in assay [14] was “no coloration” in each case. Further, the “peptidase activity revealed … of the colonies” value in [15] and in assay [16] was “no coloration” in each case. Besides, the “peptidase activity revealed … of the wells” value in assay [1], in assay [3], in assay [4], in [5], in assay [6] and in assay [7] was “did not make it possible to detect” throughout. Further, the “peptidase activity revealed … of the wells” value in [8] was “did not make it possible to detect”. For the same molecule, the “revelation of a peptidase activity” value in assay [2] is recorded as “without allowing the revelation of a peptidase activity”. Further, the “leucine-aminopeptidase or proline-aminopeptidase activity demonstrated” value in assay [2] is given as “not possible to demonstrate”.
For `O=C1CCC(C(=O)Nc2c[nH]c3ccc(Br)cc23)N1` (centres unmarked) [Pyr-BIA, pyroglutamyl-BIA], the Colony colour entry is “—” in assay [17] (24 H); “Brown” in assay [17] (48 H); “Brown” in assay [18] (24 H); “Brown” in assay [18] (48 H); “—” in assay [19] (24 H); “—” in assay [19] (48 H). Also, the Colony colour entry was “Brown” in assay [20] (24 H); “Brown” in assay [20] (48 H); “—” in assay [21] (24 H); “—” in assay [21] (48 H); “Brown” in assay [22] (24 H); “Brown” in assay [22] (48 H). The Colony colour result in assay [23] (24 H) is on record as “—”; in assay [23] (48 H), “Brown”; in assay [24] (24 H) it was “—”; in assay [24] (48 H) it was “—”.
As to `C[C@H](N)C(=O)Nc1c[nH]c2ccc(Br)cc12` [L-Ala-BIA], the “peptidase activity revealed … of the colonies” value in assay [9], in assay [10], in [11], in [12], in assay [13] and in assay [14] was “no coloration” in each case. Besides, the “peptidase activity revealed … of the colonies” value in assay [15] and in assay [16] was “no coloration” in each case.
As to `CC(N)C(=O)NC(Cc1ccccc1)C(=O)N1CCCC1C(=O)Nc1c[nH]c2ccc(Br)cc12` (stereo not drawn) [Ala-Phe-Pro-BIA], the Colony colour result in assay [17] (24 H), in assay [17] (48 H), in [18] (24 H), in assay [18] (48 H), in assay [20] (24 H) and in assay [20] (48 H) was “Brown” each time. The Colony colour entry in assay [21] (24 H) is “Brown^2”; in [21] (48 H) it was “Brown”; in assay [22] (24 H) it was “—”; in assay [22] (48 H), “—”; in [23] (24 H) it was “Brown”; in assay [23] (48 H), “Brown”. Moreover, the Colony colour result in assay [24] (24 H) and in assay [24] (48 H) was “Brown” throughout.
`Cc1cc(=O)oc2cc(NC(=O)[C@@H]3CCCN3)ccc12` [L-Pro-AMC, 7-L-prolylamino-4-methylcoumarin]: the “leucine-aminopeptidase or proline-aminopeptidase activity demonstrated” value in [2] is given as “a fluorescence”. The “peptidase activity revealed … of the colonies” value in assay [14] and in [25] was “emission of a fluorescence” throughout. Also, the “peptidase activity revealed … of the wells” value in assay [26] and in assay [6] was “possible to reveal an L-Pro-aminopeptidase activity” each time.
Take `O=C(Nc1c[nH]c2ccc(Br)cc12)[C@@H]1CCCN1` [L-Pro-BIA]: the Colony colour entry in [27] (24 H) was “Brown”; in [27] (48 H), “Brown”; in assay [17] (24 H), “—”; in [17] (48 H) it was “—”; in assay [20] (24 H), “Brown”; in assay [20] (48 H) it was “Brown”. For the same molecule, the Colony colour entry in assay [21] (24 H) was “—^1”; in assay [21] (48 H), “—”; in [28] (24 H) it was “—”; in assay [28] (48 H), “—”; in assay [23] (24 H), “—”; in assay [23] (48 H), “—”. For the same molecule, the “revelation of a peptidase activity” value in [2] was “without allowing the revelation of a peptidase activity”. The “leucine-aminopeptidase or proline-aminopeptidase activity demonstrated” value in assay [2] is “not possible to demonstrate”. Moreover, the “peptidase activity revealed … of the colonies” value in [14] and in assay [25] was “no coloration” throughout. Further, the “peptidase activity revealed … of the wells” value in [26] and in [6] was “No coloration” each time.
